The target in experiment [1] is T1, Dual specificity testis-specific protein kinase 2 (Homo sapiens, UniProt Q96S53). Description: Inhibition of TESK2.
Target sequence in this assay (Q96S53 whole entry, the tested form may be a part): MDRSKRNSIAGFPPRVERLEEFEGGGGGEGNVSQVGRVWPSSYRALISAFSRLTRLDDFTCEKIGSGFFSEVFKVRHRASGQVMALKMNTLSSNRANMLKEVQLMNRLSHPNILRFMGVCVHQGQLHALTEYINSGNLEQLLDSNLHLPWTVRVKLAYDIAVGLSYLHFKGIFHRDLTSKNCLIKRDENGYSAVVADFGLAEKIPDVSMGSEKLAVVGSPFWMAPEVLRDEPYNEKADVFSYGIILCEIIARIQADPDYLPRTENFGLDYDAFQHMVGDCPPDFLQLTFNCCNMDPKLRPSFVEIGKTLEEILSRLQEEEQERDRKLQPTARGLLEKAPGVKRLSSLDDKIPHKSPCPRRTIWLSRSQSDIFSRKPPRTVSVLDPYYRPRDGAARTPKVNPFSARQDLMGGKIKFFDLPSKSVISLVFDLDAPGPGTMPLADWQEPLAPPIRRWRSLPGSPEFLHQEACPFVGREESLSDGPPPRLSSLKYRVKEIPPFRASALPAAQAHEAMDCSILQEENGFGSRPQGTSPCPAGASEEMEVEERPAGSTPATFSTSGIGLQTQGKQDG
The target of the next experiment is LIM domain kinase 1 (Homo sapiens, UniProt P53667). Description: Inhibition of LIMK1.
The target in the next experiment is LIM domain kinase 2 (Homo sapiens, UniProt P53671). Description: Inhibition of LIMK2.
The target of experiment [2] is Dual specificity testis-specific protein kinase 1 (Homo sapiens, UniProt Q15569). Description: Inhibition of TESK1.
Dual specificity testis-specific protein kinase 1, sequence (Q15569 whole entry): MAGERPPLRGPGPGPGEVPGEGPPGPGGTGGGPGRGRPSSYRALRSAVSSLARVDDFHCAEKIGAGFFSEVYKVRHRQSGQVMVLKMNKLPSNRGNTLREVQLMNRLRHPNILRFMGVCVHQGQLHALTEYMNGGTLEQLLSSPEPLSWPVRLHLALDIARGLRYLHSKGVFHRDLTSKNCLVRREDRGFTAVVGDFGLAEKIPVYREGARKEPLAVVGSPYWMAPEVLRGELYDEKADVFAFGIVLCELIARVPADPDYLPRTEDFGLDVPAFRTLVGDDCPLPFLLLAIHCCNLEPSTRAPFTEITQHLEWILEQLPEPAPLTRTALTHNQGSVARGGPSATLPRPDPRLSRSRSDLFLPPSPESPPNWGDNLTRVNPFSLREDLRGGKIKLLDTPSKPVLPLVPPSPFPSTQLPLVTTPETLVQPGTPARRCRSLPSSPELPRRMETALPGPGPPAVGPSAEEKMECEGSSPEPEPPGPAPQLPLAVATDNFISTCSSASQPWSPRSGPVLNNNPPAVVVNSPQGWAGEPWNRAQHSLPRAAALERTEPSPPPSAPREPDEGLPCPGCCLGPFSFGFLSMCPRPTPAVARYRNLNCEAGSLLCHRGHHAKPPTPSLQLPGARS
Experiment [3] addresses Mitogen-activated protein kinase 14 (Homo sapiens, UniProt Q16539). Description: Inhibition of MAPK p38alpha.
Experiment [4] addresses T1, Dual specificity testis-specific protein kinase 2. Description: Inhibition of TESK2 at 30 uM.
Target sequence in this assay (Q96S53 whole entry, looked up, the tested form may be a part): as the sequence (Q96S53 whole entry, the tested form may be a part) above

The structures appear in SMILES notation. pIC50: −log10 of the molar value. Where only a bound is given, the exact number is not on record here.

This note sets out measurements from ChEMBL document CHEMBL2069273, “Modulation of cofilin phosphorylation by inhibition of the Lim family kinases” (Bioorg Med Chem Lett, 2012).

LIM domain kinase 2, sequence (P53671 whole entry, the tested form may be a part): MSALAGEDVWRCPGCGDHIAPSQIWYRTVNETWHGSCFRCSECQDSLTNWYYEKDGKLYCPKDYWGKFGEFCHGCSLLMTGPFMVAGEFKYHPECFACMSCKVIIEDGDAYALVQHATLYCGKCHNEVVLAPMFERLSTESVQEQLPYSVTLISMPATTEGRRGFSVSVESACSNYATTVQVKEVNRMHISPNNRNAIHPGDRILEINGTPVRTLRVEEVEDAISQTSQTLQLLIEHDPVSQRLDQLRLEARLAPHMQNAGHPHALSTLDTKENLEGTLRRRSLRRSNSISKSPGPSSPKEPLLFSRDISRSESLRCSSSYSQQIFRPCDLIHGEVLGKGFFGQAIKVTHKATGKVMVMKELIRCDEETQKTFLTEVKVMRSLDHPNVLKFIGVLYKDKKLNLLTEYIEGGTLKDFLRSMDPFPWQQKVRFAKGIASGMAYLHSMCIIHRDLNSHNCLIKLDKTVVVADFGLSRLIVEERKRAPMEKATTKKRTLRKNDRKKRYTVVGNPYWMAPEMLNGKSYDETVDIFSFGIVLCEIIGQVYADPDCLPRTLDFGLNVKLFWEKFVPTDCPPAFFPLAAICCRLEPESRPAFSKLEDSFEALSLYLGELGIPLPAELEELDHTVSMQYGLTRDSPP
LIM domain kinase 1, sequence (P53667 whole entry, the tested form may be a part): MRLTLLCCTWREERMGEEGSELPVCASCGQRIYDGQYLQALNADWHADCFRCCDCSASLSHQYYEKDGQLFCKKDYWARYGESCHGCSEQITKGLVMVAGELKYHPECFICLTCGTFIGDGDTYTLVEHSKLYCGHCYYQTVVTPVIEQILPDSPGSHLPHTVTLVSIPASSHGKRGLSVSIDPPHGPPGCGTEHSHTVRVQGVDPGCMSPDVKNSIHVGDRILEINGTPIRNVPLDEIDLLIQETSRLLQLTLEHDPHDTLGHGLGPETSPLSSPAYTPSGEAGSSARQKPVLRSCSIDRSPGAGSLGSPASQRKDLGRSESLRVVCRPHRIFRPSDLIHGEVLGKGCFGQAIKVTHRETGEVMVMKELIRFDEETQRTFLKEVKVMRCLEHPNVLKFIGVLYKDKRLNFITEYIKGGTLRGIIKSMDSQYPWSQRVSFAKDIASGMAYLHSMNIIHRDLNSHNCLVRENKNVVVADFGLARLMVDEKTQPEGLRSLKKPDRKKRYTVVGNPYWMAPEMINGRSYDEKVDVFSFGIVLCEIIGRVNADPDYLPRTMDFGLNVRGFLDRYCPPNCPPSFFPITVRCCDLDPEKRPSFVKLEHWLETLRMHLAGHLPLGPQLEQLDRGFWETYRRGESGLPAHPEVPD
Mitogen-activated protein kinase 14, sequence (Q16539 whole entry): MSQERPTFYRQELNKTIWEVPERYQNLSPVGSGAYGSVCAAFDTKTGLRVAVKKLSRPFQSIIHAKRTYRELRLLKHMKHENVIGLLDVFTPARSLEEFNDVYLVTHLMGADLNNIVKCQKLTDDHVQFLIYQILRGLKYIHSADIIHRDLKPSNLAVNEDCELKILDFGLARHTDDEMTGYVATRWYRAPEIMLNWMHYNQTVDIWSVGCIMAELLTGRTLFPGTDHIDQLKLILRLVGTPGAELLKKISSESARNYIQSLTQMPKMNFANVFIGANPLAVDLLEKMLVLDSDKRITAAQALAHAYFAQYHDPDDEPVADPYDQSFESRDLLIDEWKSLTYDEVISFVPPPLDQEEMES

Broadly, the pIC50 is the negative decadic logarithm of the IC50, by convention in mol/L. A lower pIC50 goes with a high IC50. In the case of `CCCNc1ncc(-c2cc(-c3cc(OCCC)ccc3Cl)nc(-c3cnccn3)n2)s1`, the pIC50 was < 4.52 in experiment [1], 5.98 against LIM domain kinase 1, 6.77 at LIM domain kinase 2 and < 4.52 in experiment [2].
Regarding `CCOc1ccc(-c2cc(-c3cnc(NC(C)C)s3)nc(-c3cnccn3)n2)c(Cl)c1`, the pIC50 was 6.43 against LIM domain kinase 1 and 5.70 in experiment [3].
`CCOc1ccc(-c2cc(-c3cnc(NC(C)C)s3)nc(-c3ccccc3F)n2)c(Cl)c1`: the pIC50 against LIM domain kinase 1 is < 4.30; in experiment [3], 6.23.
With `CCCNc1ncc(-c2cc(-c3ccc(OC(CC)CC)cc3Cl)nc(-c3cnccn3)n2)s1`, the pIC50 is < 4.52 in experiment [1], 6.44 against LIM domain kinase 1, 4.30 against LIM domain kinase 2 and < 4.52 in experiment [2].
As to `COc1cc(C)c(-c2cc(-c3cnc(NC(C)=O)s3)nc(-c3cnccn3)n2)c(C)c1`, the pIC50 in experiment [1] is 6.21; against LIM domain kinase 1, 7.06; against LIM domain kinase 2, 7.23; in experiment [2], 5.64.
By inhibition is commonly meant the drop in the measured response relative to a control, in per cent. Read a low inhibition as little suppression. For `CCCNc1ncc(-c2cc(-c3c(Cl)cc(OC)cc3Cl)nc(-c3cnccn3)n2)s1`, the values for the pIC50 (at LIM domain kinase 1; at LIM domain kinase 2; in experiment [2]) were 7.42, 7.80 and < 4.52, respectively. In experiment [4], this molecule showed an inhibition of 72%.
For the molecule `COc1cc(Cl)c(-c2cc(-c3cnc(NC(C)=O)s3)nc(-c3cnccn3)n2)c(Cl)c1`, the pIC50 in experiment [1] was < 4.52; on LIM domain kinase 1 it was 7.52; against LIM domain kinase 2, 8.10; in experiment [2] it was < 4.52.
Turning to `CCC(CC)Oc1cc(C)c(-c2cc(-c3cnc(NC(=O)C(C)C)s3)nc(-c3cnccn3)n2)c(C)c1`, the pIC50 in experiment [1] was < 4.90; against LIM domain kinase 1 it was 6.76; against LIM domain kinase 2, 6.61; in experiment [2], < 4.90.
As for `CCC(CC)Oc1cc(C)c(-c2cc(-c3cnc(NC(=O)NC)s3)nc(-c3cnccn3)n2)c(C)c1`, the pIC50 is 6.38 in experiment [1], 7.18 against LIM domain kinase 1, 6.76 against LIM domain kinase 2 and 5.66 in experiment [2].
The like results for `CCC(CC)Oc1cc(C)c(-c2cc(-c3cnc(NC(=O)OC)s3)nc(-c3cnccn3)n2)c(C)c1` were, in that order, < 4.52, 6.64, 6.42 and < 4.52.
The like results for `CCCNc1ncc(-c2cc(-c3cc(OC)ccc3Cl)nc(-c3cnccn3)n2)s1` were, in that order, < 4.52, 4.90, 6.12 and < 4.52.
In the same order, the values of `CCCNc1ncc(-c2cc(-c3cc(OCCC4CCCCC4)ccc3Cl)nc(-c3cnccn3)n2)s1` are < 4.52, 6.84, 7.55 and < 4.52.
For the molecule `CCCNc1ncc(-c2cc(-c3ccc(OC)cc3Cl)nc(-c3cnccn3)n2)s1`, the negative logarithm of the IC50 (pIC50) in experiment [1] is < 4.52; at LIM domain kinase 1 it was 5.78; against LIM domain kinase 2 it was 5.91; in experiment [2], < 4.52.
As to `CCOc1ccc(-c2cc(-c3cnc(NC(C)C)s3)nc(-c3ccccn3)n2)c(Cl)c1`, the negative-log IC50 (pIC50) against LIM domain kinase 1 was 6.31; in experiment [3] it was 5.40.
For the molecule `COC(=O)Nc1ncc(-c2cc(-c3c(C)cc(OC)cc3C)nc(-c3cnccn3)n2)s1`, the pIC50 is 5.56 in experiment [1], 6.55 against LIM domain kinase 1, 6.69 against LIM domain kinase 2 and 4.92 in experiment [2].
With `CCCNc1ncc(-c2cc(-c3ccc(O)cc3Cl)nc(-c3cnccn3)n2)s1`, the pIC50 in experiment [1] is < 4.52; at LIM domain kinase 1 it was 5.11; at LIM domain kinase 2 it was < 4.90; in experiment [2] it was < 4.52.
For `CCCNc1ncc(-c2cc(-c3c(Cl)cc(OC4CCCC4)cc3Cl)nc(-c3cnccn3)n2)s1`, the pIC50 in experiment [1] is < 4.52; against LIM domain kinase 1 it was 6.60; against LIM domain kinase 2, 6.09; in experiment [2], < 4.52.
As for `CNC(=O)Nc1ncc(-c2cc(-c3c(Cl)cc(OC)cc3Cl)nc(-c3cnccn3)n2)s1`, the negative-log IC50 (pIC50) in experiment [1] was < 4.52; at LIM domain kinase 1, 7.49; on LIM domain kinase 2 it was 7.92; in experiment [2] it was < 4.52.
On to `CCCNc1ncc(-c2cc(-c3ccc(OC4CCCC4)cc3Cl)nc(-c3cnccn3)n2)s1`, for which the pIC50 in experiment [1] is < 4.52; against LIM domain kinase 1 it was 6.68; on LIM domain kinase 2 it was 4.30; in experiment [2] it was < 4.52.
Regarding `CCCCCOc1ccc(-c2cc(-c3cnc(NCCC)s3)nc(-c3cnccn3)n2)c(Cl)c1`, the pIC50 in experiment [1] was < 4.52; at LIM domain kinase 1 it was 6.35; on LIM domain kinase 2, 5.81; in experiment [2], < 4.52.
In the case of `CCCNc1ncc(-c2cc(-c3ccc(OC(CC)CC)cc3C)nc(-c3cnccn3)n2)s1`, the pIC50 was < 4.52 in experiment [1], 6.67 against LIM domain kinase 1, 5.91 at LIM domain kinase 2 and < 4.52 in experiment [2].
Take `CCC(CC)Oc1cc(C)c(-c2cc(-c3cnc(NC(C)=O)s3)nc(-c3cnccn3)n2)c(C)c1`: the pIC50 in experiment [1] is 5.70; against LIM domain kinase 1 it was 7.19; at LIM domain kinase 2, 6.51; in experiment [2], < 4.52.
In the same order, the values of `CCCNc1ncc(-c2cc(-c3c(Cl)cc(OC(CC)CC)cc3Cl)nc(-c3cnccn3)n2)s1` are < 4.52, 6.79, 5.82 and < 4.52.
For `CNC(=O)Nc1ncc(-c2cc(-c3c(C)cc(OC)cc3C)nc(-c3cnccn3)n2)s1`, the pIC50 in experiment [1] was 6.38; on LIM domain kinase 1 it was 7.64; against LIM domain kinase 2, 7.80; in experiment [2], 5.95.
`CCCNc1ncc(-c2cc(-c3c(Cl)cc(OCCC)cc3Cl)nc(-c3cnccn3)n2)s1`: the pIC50 in experiment [1] was < 4.52; against LIM domain kinase 1 it was 6.94; against LIM domain kinase 2, 6.85; in experiment [2], < 4.52.
